# Data from US20260028384A1, “USE OF IL-2 VARIANT FOR TREATING KIDNEY TRANSPLANT REJECTION” (Visterra, Inc., priority 2024, published 2026).
# “Also recorded” adds a separate entry of the source.
# Legend:
# kidney allograft [1] = assay: Kidney allograft survival after transplant and discontinuation of treatment, rapamycin discontinued on Day 30 (Example 3); type: in vivo, Rhesus monkeys
# Source text: However, rapamycin administration was discontinued on Day 30 post-transplant. A control group was only administered the daily rapamycin.
# [2] = test system: regulatory T cells (Tregs); assay: Immunomodulatory effect (Treg expansion) in naïve Rhesus monkeys, flow cytometry; type: in vivo
# Procedure: An exemplary alpha-biased IL-2 variant fused to an Fc domain of human IgG1 was prepared with a full length sequence according to SEQ ID NO: 27. The immunomodulatory effect of the exemplary alpha-biased IL-2-Fc fusion protein was assessed in naïve Rhesus monkeys by a study outlined in FIG. 1A. […] Rapamycin was also administered daily from Day 0 by intramuscular injections, targeting a trough level of approximately 8-12 ng/mL. Treg populations (CD4^+CD25^+FoxP3^+ and CD4^+CD25^+CD127^lo) and other immune cell populations including CD3^+/CD8^+ cytotoxic T cells (CTL) were analyzed using flow cytometry.
# kidney allograft [3] = test system: kidney allograft
# Source text: The effect of an exemplary alpha-biased IL-2-Fc fusion protein (SEQ ID NO: 27) on prolonged kidney allograft survival following transplant was studied in naïve Rhesus monkeys, as outlined in FIG. 1B. For the kidney transplant, animals were paired with ABO-compatible donors and mismatched for MHC haplotype of class I loci while allowing 1 or 2 MHC II haplotype matching. This degree of MHC mismatch is known to elicit a robust graft rejection and sensitization.
# The alpha-biased IL-2-Fc fusion protein was administered subcutaneously at a dose of 50 μg/kg both pre- and post-transplant on Days −6, 1, 15, and 29. The kidney transplant was performed on Day 0, and rapamycin was administered daily by intramuscular injection, targeting a trough concentration of approximately 8-12 ng/mL. Rapamycin administration was discontinued on Day […] post-transplant. As a control, five monkeys were only administered the daily rapamycin. Kidney allograft biopsies were performed at 1-month and 3-months post-transplant. Blood samples were collected regularly, and samples were either analyzed at ambient temperature or frozen and stored.
compound,measurement,setting,value
"CO[C@H]1C[C@@H]2CC[C@@H](C)[C@@](O)(O2)C(=O)C(=O)N2CCCC[C@H]2C(=O)O[C@H]([C@H](C)C[C@@H]2CC[C@@H](O)[C@H](OC)C2)CC(=O)[C@H](C)/C=C(\C)[C@@H](O)[C@@H](OC)C(=O)[C@H](C)C[C@H](C)/C=C/C=C/C=C/1C [rapamycin, reference compound]",time to termination post-transplant (increases in sCR and BUN or excessive weight loss),"kidney allograft [1]; control group, daily rapamycin only, FIG. 10B",less than 30 days
alpha-biased IL-2-Fc fusion protein: IL2 Variant (H16L/V69A/Q74P/C125S) fused to IgG1 Fc (N297G) allotype m3; full length sequence SEQ ID NO: 27,percent of Tregs (CD4+CD25+FoxP3+),"[2]; 5-7 days after administration, increased from 6.21% pre-treatment, s.c. 50 or 100 μg/kg with daily rapamycin, FIG. 2A",38.5%
same,tachyphylaxis of Treg number and percent on repeated dosing,"[2]; FIGS. 3A and 3B, after each dose",without signs of tachyphylaxis
same,cytotoxic T cells (CTLs) during the increase in Tregs,[2]; over the course of treatment,did not coincide with an increase
same,ratio of Tregs:CD8 cells,"[2]; over the course of treatment, 50 or 100 μg/kg, FIG. 2B",significantly increased in a dose-dependent manner
same,absolute number of Tregs,"[2]; over the course of treatment, s.c. Days 0, 14, 28 at 50 or 100 μg/kg, daily rapamycin, FIG. 2B",significantly increased in a dose-dependent manner; also recorded: statistically significant and dose dependent
same,"time sCR and BUN levels stable post-transplant, most cases","kidney allograft [1]; 50 μg/kg s.c. Days −6, 1, 15, 29 plus daily rapamycin until Day 30, most cases, FIG. 10A",at least 40 days
same,"time sCR and BUN levels stable post-transplant, some cases","kidney allograft [1]; rapamycin discontinued Day 30, some cases",≥ 110 days
same,time sCR and BUN levels stable following complete withdrawal of immunosuppressive drugs,kidney allograft [1]; some cases,up to 82 days
same,"survival post-transplant, one Rhesus monkey","kidney allograft [3]; 50 μg/kg plus daily rapamycin until Day 180, longest surviving monkey",235 days
same,"kidney graft survival, at least three of four Rhesus monkeys","kidney allograft [3]; 50 μg/kg plus daily rapamycin, at least three of four monkeys",over 50 days
same,"time creatinine and BUN / transplanted kidney stable post-transplant, some cases","kidney allograft [3]; 50 μg/kg s.c. Days −6, 1, 15, 29 plus daily rapamycin until Day 180, some cases",over 235 days
same,"time creatinine and blood urea nitrogen (BUN) stable post-transplant, most cases","kidney allograft [3]; 50 μg/kg s.c. Days −6, 1, 15, 29 plus daily rapamycin, most cases, FIGS. 4A, 4B",over 50 days
same,Tregs (FoxP3+ CD4+ and CD127lo CD4+) in PBMCs,"kidney allograft [3]; after administration, post-transplant, FIG. 8",increase in both percent and number
same,CD20+ B cells,"kidney allograft [3]; after kidney transplant, FIG. 5",decrease
same,histopathology of monkey terminated early for excessive body weight loss,kidney allograft [3]; one monkey of the fusion protein group,did not indicate kidney rejection
same,"blood chemistry parameters (ALT, ALP, GGT, bilirubin, protein, albumin, globulin, cholesterol, phosphate, calcium, glucose, sodium, potassium, chloride)","kidney allograft [3]; rhesus monkey, in vivo",fell within the expected range
same,"hematology parameters (hemoglobin, hematocrit, blood cell counts)","kidney allograft [3]; rhesus monkey, in vivo",normally fell within their expected ranges
